Data: PubChem BioAssay (NCI)
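How tested: cells in 96-well plates exposed to compound for 48 hours at five concentrations. GI50 is the concentration that inhibits growth by half. TGI: concentration producing complete growth inhibition.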

Assays:
Experiment in all cases: NCI tumour cell line growth inhibition, 48 h
DU-145 prostate = test system: DU-145 prostate
NCI-H23 lung = test system: NCI-H23 lung
EKVX NSCLC = test system: EKVX NSCLC
HOP-92 NSCLC = test system: HOP-92 NSCLC
SNB-19 CNS = test system: SNB-19 CNS
SW-620 colon = test system: SW-620 colon
COLO 205 colon = test system: COLO 205 colon
RXF 393 renal = test system: RXF 393 renal
SK-OV-3 ovarian = test system: SK-OV-3 ovarian
HCT-116 colon = test system: HCT-116 colon
K-562 leukemia = test system: K-562 leukemia
OVCAR-4 ovarian = test system: OVCAR-4 ovarian
ACHN renal = test system: ACHN renal
CCRF-CEM leukemia = test system: CCRF-CEM leukemia
TK-10 renal = test system: TK-10 renal
SF-539 CNS = test system: SF-539 CNS
HOP-62 NSCLC = test system: HOP-62 NSCLC
A549 NSCLC = test system: A549 NSCLC
HCC-2998 colon = test system: HCC-2998 colon
UACC-62 melanoma = test system: UACC-62 melanoma
PC-3 prostate = test system: PC-3 prostate
OVCAR-5 ovarian = test system: OVCAR-5 ovarian
M14 melanoma = test system: M14 melanoma
NCI/ADR-RES ovarian = test system: NCI/ADR-RES ovarian
MDA-MB-435 = test system: MDA-MB-435
HT29 colon = test system: HT29 colon
SN12C renal = test system: SN12C renal
MCF7 breast = test system: MCF7 breast
SNB-75 CNS = test system: SNB-75 CNS
U251 CNS = test system: U251 CNS
OVCAR-3 ovarian = test system: OVCAR-3 ovarian
SF-268 CNS = test system: SF-268 CNS
SK-MEL-5 melanoma = test system: SK-MEL-5 melanoma
RPMI-8226 leukemia = test system: RPMI-8226 leukemia
NCI-H522 lung = test system: NCI-H522 lung
CAKI-1 renal = test system: CAKI-1 renal
HL-60(TB) leukemia = test system: HL-60(TB) leukemia
786-0 renal = test system: 786-0 renal
UO-31 renal = test system: UO-31 renal
SF-295 CNS = test system: SF-295 CNS
BT-549 breast = test system: BT-549 breast
KM12 colon = test system: KM12 colon
NCI-H460 lung = test system: NCI-H460 lung
HS 578T breast = test system: HS 578T breast
T-47D breast = test system: T-47D breast
UACC-257 melanoma = test system: UACC-257 melanoma
A498 renal = test system: A498 renal
MALME-3M melanoma = test system: MALME-3M melanoma
SR leukemia = test system: SR leukemia
SK-MEL-28 melanoma = test system: SK-MEL-28 melanoma
NCI-H226 lung = test system: NCI-H226 lung
MDA-MB-231 breast = test system: MDA-MB-231 breast
LOX IMVI melanoma = test system: LOX IMVI melanoma
SK-MEL-2 melanoma = test system: SK-MEL-2 melanoma
IGROV1 ovarian = test system: IGROV1 ovarian
MOLT-4 leukemia = test system: MOLT-4 leukemia
HCT-15 colon = test system: HCT-15 colon
OVCAR-8 ovarian = test system: OVCAR-8 ovarian

CCCC(=O)OCC1OC(n2cnc3c(=S)nc(N)[nH]c32)C(OC(=O)CCC)C1OC(=O)CCC (stereo unspecified)
GI50 (DU-145 prostate): 2.54 µM | TGI (DU-145 prostate): 51.3 µM | GI50 (NCI-H23 lung): 4.01 µM | TGI (NCI-H23 lung): 33 µM | GI50 (EKVX NSCLC): 5.36 µM | TGI (EKVX NSCLC): > 100 µM | GI50 (HOP-92 NSCLC): 1.4 µM | TGI (HOP-92 NSCLC): > 48.3 µM | GI50 (SNB-19 CNS): 27 µM | TGI (SNB-19 CNS): > 100 µM | GI50 (SW-620 colon): 5.68 µM | TGI (SW-620 colon): > 77.7 µM | GI50 (COLO 205 colon): 4.73 µM | TGI (COLO 205 colon): 14.6 µM | GI50 (RXF 393 renal): 4.89 µM | TGI (RXF 393 renal): 24.2 µM | GI50 (SK-OV-3 ovarian): 1.56 µM | TGI (SK-OV-3 ovarian): 9.94 µM | GI50 (HCT-116 colon): 2.72 µM | TGI (HCT-116 colon): 19.8 µM | GI50 (K-562 leukemia): 3.92 µM | TGI (K-562 leukemia): > 100 µM | GI50 (OVCAR-4 ovarian): 2.73 µM | TGI (OVCAR-4 ovarian): 35.8 µM | GI50 (ACHN renal): 4.96 µM | TGI (ACHN renal): > 68 µM | GI50 (CCRF-CEM leukemia): 2.26 µM | TGI (CCRF-CEM leukemia): > 27.6 µM | GI50 (TK-10 renal): 1.91 µM | TGI (TK-10 renal): 16.4 µM | GI50 (SF-539 CNS): 2.6 µM | TGI (SF-539 CNS): 18.4 µM | GI50 (HOP-62 NSCLC): 2.05 µM | TGI (HOP-62 NSCLC): 15 µM | GI50 (A549 NSCLC): 25.2 µM | TGI (A549 NSCLC): > 100 µM | GI50 (HCC-2998 colon): 2.52 µM | TGI (HCC-2998 colon): 23.6 µM | GI50 (UACC-62 melanoma): 2.81 µM | TGI (UACC-62 melanoma): 16 µM | GI50 (PC-3 prostate): 3.42 µM | TGI (PC-3 prostate): > 100 µM | GI50 (OVCAR-5 ovarian): 3.06 µM | TGI (OVCAR-5 ovarian): > 85.5 µM | GI50 (M14 melanoma): 1.75 µM | TGI (M14 melanoma): 9.32 µM | GI50 (NCI/ADR-RES ovarian): 5.41 µM | TGI (NCI/ADR-RES ovarian): > 100 µM | GI50 (MDA-MB-435): 3.41 µM | TGI (MDA-MB-435): 46.9 µM | GI50 (HT29 colon): 5.63 µM | TGI (HT29 colon): 39.9 µM | GI50 (SN12C renal): 3.81 µM | TGI (SN12C renal): > 100 µM | GI50 (MCF7 breast): 2.79 µM | TGI (MCF7 breast): 23.4 µM | GI50 (SNB-75 CNS): 1.26 µM | TGI (SNB-75 CNS): 12.2 µM | GI50 (U251 CNS): 13.3 µM | TGI (U251 CNS): > 100 µM | GI50 (OVCAR-3 ovarian): 2.08 µM | TGI (OVCAR-3 ovarian): 6.19 µM | GI50 (SF-268 CNS): 4.1 µM | TGI (SF-268 CNS): > 100 µM | GI50 (SK-MEL-5 melanoma): 6.43 µM | TGI (SK-MEL-5 melanoma): 19.5 µM | GI50 (RPMI-8226 leukemia): 3.97 µM | TGI (RPMI-8226 leukemia): 57.6 µM | GI50 (NCI-H522 lung): 2.58 µM | TGI (NCI-H522 lung): 14.2 µM | GI50 (CAKI-1 renal): 2.4 µM | TGI (CAKI-1 renal): > 47.5 µM | GI50 (HL-60(TB) leukemia): 5.27 µM | TGI (HL-60(TB) leukemia): > 57.6 µM | GI50 (786-0 renal): 2.92 µM | TGI (786-0 renal): 14.7 µM | GI50 (UO-31 renal): 3.99 µM | TGI (UO-31 renal): > 95.5 µM | GI50 (SF-295 CNS): 0.906 µM | TGI (SF-295 CNS): > 25 µM | GI50 (BT-549 breast): 2.55 µM | TGI (BT-549 breast): 29.3 µM | GI50 (KM12 colon): 3.76 µM | TGI (KM12 colon): 22 µM | GI50 (NCI-H460 lung): 3.85 µM | TGI (NCI-H460 lung): 19.3 µM | GI50 (HS 578T breast): 12.5 µM | TGI (HS 578T breast): > 95.7 µM | GI50 (T-47D breast): 3.37 µM | TGI (T-47D breast): 23 µM | GI50 (UACC-257 melanoma): 8.61 µM | TGI (UACC-257 melanoma): > 100 µM | GI50 (A498 renal): 2.98 µM | TGI (A498 renal): > 35.9 µM | GI50 (MALME-3M melanoma): 1.66 µM | TGI (MALME-3M melanoma): 36.5 µM | GI50 (SR leukemia): 1.03 µM | TGI (SR leukemia): 36.3 µM | GI50 (SK-MEL-28 melanoma): 23.6 µM | TGI (SK-MEL-28 melanoma): 98 µM | GI50 (NCI-H226 lung): 5.47 µM | TGI (NCI-H226 lung): > 100 µM | GI50 (MDA-MB-231 breast): 4.42 µM | TGI (MDA-MB-231 breast): > 100 µM | GI50 (LOX IMVI melanoma): 0.574 µM | TGI (LOX IMVI melanoma): > 37 µM | GI50 (SK-MEL-2 melanoma): 3.61 µM | TGI (SK-MEL-2 melanoma): > 44.5 µM | GI50 (IGROV1 ovarian): 5.93 µM | TGI (IGROV1 ovarian): 45.8 µM | GI50 (MOLT-4 leukemia): 3.93 µM | TGI (MOLT-4 leukemia): > 85.3 µM | GI50 (HCT-15 colon): 7.6 µM | TGI (HCT-15 colon): > 100 µM | GI50 (OVCAR-8 ovarian): 4.72 µM | TGI (OVCAR-8 ovarian): > 100 µM
